Calls of active or inactive are those of the source. No cut-off for these calls is given here.
Columns and labels:
[1] = target: Cholinesterase (Equus caballus) (UniProt P81908); test: Inhibition of BChE in horse serum using butyrylthiocholine iodide as substrate at 200 uM after 120 mins by Ellman's method relative to control
Acetylcholinesterase [2] = target: T1, Acetylcholinesterase (Torpedo californica, UniProt P04058)
Description: Inhibition of Pacific electric ray AChE using acetylthiocholine iodide as substrate after 60 mins by Ellman's method

[3] = target: Acetylcholinesterase (Torpedo californica) (UniProt P04058); test: Inhibition of Pacific electric ray AChE using acetylthiocholine iodide as substrate at 200 uM after 60 mins by Ellman's method relative to control; conditions: Tetronarce californica
[4] = Selectivity index, ratio of IC50 for Pacific electric ray AChE to IC50 for BChE in horse serum
Cholinesterase = Cholinesterase (Equus caballus, UniProt P81908)
Description: Inhibition of BChE in horse serum using butyrylthiocholine iodide as substrate after 120 mins by Ellman's method

Acetylcholinesterase [5] = target: T1, Acetylcholinesterase; test: Uncompetitive inhibition of Pacific electric ray AChE using acetylthiocholine as substrate by Lineweaver-Burk plot analysis; parameters: species or system Tetronarce californica

Chain of Acetylcholinesterase (Torpedo californica) (P04058 22-564 limits assumed): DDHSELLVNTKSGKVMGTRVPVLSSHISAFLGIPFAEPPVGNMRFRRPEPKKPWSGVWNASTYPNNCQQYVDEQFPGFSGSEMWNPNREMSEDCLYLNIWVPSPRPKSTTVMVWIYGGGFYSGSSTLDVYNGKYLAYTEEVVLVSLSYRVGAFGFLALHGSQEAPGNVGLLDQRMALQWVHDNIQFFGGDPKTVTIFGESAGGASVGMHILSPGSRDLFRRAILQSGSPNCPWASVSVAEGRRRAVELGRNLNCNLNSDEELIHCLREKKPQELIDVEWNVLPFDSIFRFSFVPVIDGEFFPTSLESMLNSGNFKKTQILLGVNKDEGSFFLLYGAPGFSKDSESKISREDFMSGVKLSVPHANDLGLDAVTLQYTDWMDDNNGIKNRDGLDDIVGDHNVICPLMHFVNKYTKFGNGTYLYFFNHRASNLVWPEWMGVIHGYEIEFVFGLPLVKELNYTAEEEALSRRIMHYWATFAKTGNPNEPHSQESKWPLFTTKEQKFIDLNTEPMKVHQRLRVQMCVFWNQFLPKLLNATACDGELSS
Chain of Cholinesterase (P81908 whole entry): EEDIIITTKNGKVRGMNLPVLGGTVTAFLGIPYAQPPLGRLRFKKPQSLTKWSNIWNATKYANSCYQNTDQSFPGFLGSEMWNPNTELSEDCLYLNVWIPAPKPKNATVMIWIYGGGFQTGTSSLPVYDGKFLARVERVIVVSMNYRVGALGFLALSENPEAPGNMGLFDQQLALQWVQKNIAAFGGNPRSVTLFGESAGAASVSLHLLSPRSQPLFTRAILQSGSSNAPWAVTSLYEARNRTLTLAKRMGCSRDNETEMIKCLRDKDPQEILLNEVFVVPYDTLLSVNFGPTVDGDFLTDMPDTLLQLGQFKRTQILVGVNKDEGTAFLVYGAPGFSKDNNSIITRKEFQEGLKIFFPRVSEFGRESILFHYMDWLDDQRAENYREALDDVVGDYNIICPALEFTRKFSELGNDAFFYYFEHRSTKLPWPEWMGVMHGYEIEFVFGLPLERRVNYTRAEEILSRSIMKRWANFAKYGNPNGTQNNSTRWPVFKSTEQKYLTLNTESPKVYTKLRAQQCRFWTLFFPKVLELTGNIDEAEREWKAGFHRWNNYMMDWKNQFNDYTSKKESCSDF
Chain of Cholinesterase (Equus caballus) (P81908 whole entry): as above
T1 sequence (P04058 whole entry): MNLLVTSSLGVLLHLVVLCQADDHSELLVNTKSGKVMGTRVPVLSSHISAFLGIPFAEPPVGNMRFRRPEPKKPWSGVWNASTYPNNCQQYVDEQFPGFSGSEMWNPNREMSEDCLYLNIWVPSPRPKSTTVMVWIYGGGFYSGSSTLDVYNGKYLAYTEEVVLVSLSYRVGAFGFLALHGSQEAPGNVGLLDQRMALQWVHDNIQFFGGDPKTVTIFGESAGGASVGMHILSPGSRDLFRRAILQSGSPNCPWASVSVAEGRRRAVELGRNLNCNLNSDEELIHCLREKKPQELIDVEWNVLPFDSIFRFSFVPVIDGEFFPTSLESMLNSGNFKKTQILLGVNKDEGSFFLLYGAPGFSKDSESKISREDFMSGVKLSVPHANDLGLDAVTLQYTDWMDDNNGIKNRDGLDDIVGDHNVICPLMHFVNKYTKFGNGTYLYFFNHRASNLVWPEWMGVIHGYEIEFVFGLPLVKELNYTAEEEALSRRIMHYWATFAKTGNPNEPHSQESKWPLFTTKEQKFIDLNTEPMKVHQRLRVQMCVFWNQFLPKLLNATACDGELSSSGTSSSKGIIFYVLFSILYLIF

Row | Compound | inhibition [1] | IC50 (Acetylcholinesterase [2]) | inhibition [3] | Ratio IC50 [4] | IC50 (Cholinesterase) | Ki (Acetylcholinesterase [5])
1 | C=C(CO)[C@@H]1CC[C@@]2(C)[C@H]1[C@H]1CC[C@@H]3[C@@]4(C)CC[C@H](O)C(C)(C)[C@@H]4CC[C@@]3(C)[C@]1(C)C[C@@H]2O | 32% | > 200 µM | 40.4% |  |  | 
2 | CC(C)[C@@H]1CC[C@@]2(C)[C@H]1[C@H]1CC[C@@H]3[C@@]4(C)CC[C@H](O)C(C)(C)[C@@H]4CC[C@@]3(C)[C@]1(C)C[C@@H]2O | 14.3% | > 200 µM | 24.3% |  |  | 
3 | C=C(C=O)[C@@H]1CC[C@@]2(C)[C@H]1[C@H]1CC[C@@H]3[C@@]4(C)CC[C@H](OS(=O)(=O)O)C(C)(C)[C@@H]4CC[C@@]3(C)[C@]1(C)C[C@@H]2OS(=O)(=O)O | 18.4% |  | 6.1% |  |  | 
4 | C=C(COC(C)=O)[C@@H]1CC[C@@]2(C)[C@H]1[C@H]1CC[C@@H]3[C@@]4(C)CC[C@H](OC(C)=O)C(C)(C)[C@@H]4CC[C@@]3(C)[C@]1(C)C[C@@H]2OC(C)=O |  |  | 7.2% |  |  | 
5 | C=C(C)[C@@H]1CC[C@@]2(C)[C@H]1[C@H]1CC[C@@H]3[C@@]4(C)CC[C@H](OC(=O)CCCCC(=O)O)C(C)(C)[C@@H]4CC[C@@]3(C)[C@]1(C)C[C@@H]2OC(=O)CCCCC(=O)O | 89.2% | > 200 µM | 20.2% | > 2.48 | 80.6 µM | 
6 | C=C(C)[C@@H]1CC[C@@]2(C)[C@H]1[C@H]1CC[C@@H]3[C@@]4(C)CC[C@H](OS(=O)(=O)O)C(C)(C)[C@@H]4CC[C@@]3(C)[C@]1(C)C[C@@H]2OS(=O)(=O)O | 78.5% | 190 µM | 71% | 2.95 | 64.3 µM | 
7 | CC(C)[C@@H]1CC[C@@]2(C)[C@H]1[C@H]1CC[C@@H]3[C@@]4(C)CC[C@H](OS(=O)(=O)O)C(C)(C)[C@@H]4CC[C@@]3(C)[C@]1(C)C[C@@H]2OS(=O)(=O)O | 87.8% | 58.8 µM | 98.9% | 0.56 | 104 µM | 144 µM
8 | C=C(C)[C@@H]1CC[C@@]2(C)[C@H]1[C@H]1CC[C@H]3[C@@]4(C)CC[C@H](O)C(C)(C)[C@@H]4CC[C@@]3(C)[C@]1(C)C[C@@H]2O | 42% |  | 8.1% |  |  | 
9 | C=CCCC(=O)O[C@H]1CC[C@]2(C)[C@H]3CC[C@@H]4[C@H]5[C@H](C(=C)C)CC[C@]5(C)[C@@H](OC(=O)CCC=C)C[C@@]4(C)[C@]3(C)CC[C@H]2C1(C)C | 29.3% |  | 6.4% |  |  | 
10 | C=C(C)[C@@H]1CC[C@]2(C)C(=O)C[C@]3(C)[C@H](CC[C@@H]4[C@@]5(C)CCC(=O)C(C)(C)[C@@H]5CC[C@]43C)[C@@H]12 | 33.4% |  | 6.4% |  |  | 
11 | C=C(C=O)[C@@H]1CC[C@]2(C)C(=O)C[C@]3(C)[C@H](CC[C@@H]4[C@@]5(C)CCC(=O)C(C)(C)[C@@H]5CC[C@]43C)[C@@H]12 | 86.5% | > 200 µM | 21.7% | > 9.3 | 21.5 µM | 
12 | C=C(C=O)[C@@H]1CC[C@@]2(C)[C@H]1[C@H]1CC[C@@H]3[C@@]4(C)CC[C@H](OC(C)=O)C(C)(C)[C@@H]4CC[C@@]3(C)[C@]1(C)C[C@@H]2OC(C)=O | 45.8% |  | 6.8% |  | > 200 µM | 
13 | CC1(C)[C@@H](O)CC[C@]2(C)[C@H]3CC[C@@H]4[C@H]5[C@H]([C@@]6(C)CO6)CC[C@]5(C)[C@@H](O)C[C@@]4(C)[C@]3(C)CC[C@@H]12 | 19.4% | > 200 µM | 24.3% |  |  | 
14 | C=C(C)[C@@H]1CC[C@@]2(C)[C@H]1[C@H]1CC[C@@H]3[C@@]4(C)CC[C@H](OC(C)=O)C(C)(C)[C@@H]4CC[C@@]3(C)[C@]1(C)C[C@@H]2O | 46.2% |  | 1.9% |  | > 200 µM | 
15 | C=C(C)[C@@H]1CC[C@@]2(C)[C@H]1[C@H]1CC[C@@H]3[C@@]4(C)CC[C@H](OC(C)=O)C(C)(C)[C@@H]4CC[C@@]3(C)[C@]1(C)C[C@@H]2OC(C)=O | 35.2% |  | 3.3% |  |  | 
16 | C=C(C)[C@@H]1CC[C@@]2(C)[C@H]1[C@H]1CC[C@@H]3[C@@]4(C)CC[C@H](OC(=O)c5ccccc5)C(C)(C)[C@@H]4CC[C@@]3(C)[C@]1(C)C[C@@H]2OC(=O)c1ccccc1 | 39.9% |  | 3.9% |  |  | 
17 | C=C(C)[C@@H]1CC[C@@]2(C)[C@H]1[C@H]1CCC3[C@@]4(C)CC[C@H](O)C(C)(C)[C@@H]4CC[C@@]3(C)[C@]1(C)C[C@@H]2O (some centres not stated) [CALENDULADIOL] |  | > 200 µM |  |  | > 200 µM | 
18 | CC1(C)[C@@H](OS(=O)(=O)O)CC[C@]2(C)[C@H]3CC[C@@H]4[C@H]5[C@H]([C@@]6(C)CO6)CC[C@]5(C)[C@@H](OS(=O)(=O)O)C[C@@]4(C)[C@]3(C)CC[C@@H]12 | 43.7% | > 200 µM | 13.7% |  | > 200 µM | 
19 | C=C(C=O)[C@@H]1CC[C@@]2(C)[C@H]1[C@H]1CC[C@@H]3[C@@]4(C)CC[C@H](O)C(C)(C)[C@@H]4CC[C@@]3(C)[C@]1(C)C[C@@H]2O | 42% | > 200 µM | 43.5% |  |  | 
20 | C=C(C)[C@@H]1CC[C@@]2(C)[C@H]1[C@H]1CC[C@@H]3[C@@]4(C)CC[C@H](OC(=O)c5ccc(Br)cc5)C(C)(C)[C@@H]4CC[C@@]3(C)[C@]1(C)C[C@@H]2OC(=O)c1ccc(Br)cc1 | 18.4% |  | inactive |  |  | 
21 | C=C(COS(=O)(=O)O)[C@@H]1CC[C@@]2(C)[C@H]1[C@H]1CC[C@@H]3[C@@]4(C)CC[C@H](OS(=O)(=O)O)C(C)(C)[C@@H]4CC[C@@]3(C)[C@]1(C)C[C@@H]2OS(=O)(=O)O | 50.2% | > 200 µM | 12.9% |  | > 200 µM | 
22 | C=C(C)[C@@H]1CC[C@@]2(C)[C@H]1[C@H]1CC[C@@H]3[C@@]4(C)CC[C@H](O)C(C)(C)[C@@H]4CC[C@@]3(C)[C@]1(C)C[C@@H]2OC(C)=O | 51.2% |  | 5.6% |  | > 200 µM | 
23 | C=C(CO)[C@@H]1CC[C@@]2(C)[C@H]1[C@H]1CC[C@@H]3[C@@]4(C)CC[C@H](OS(=O)(=O)O)C(C)(C)[C@@H]4CC[C@@]3(C)[C@]1(C)C[C@@H]2OS(=O)(=O)O | 56.8% | > 200 µM | 10.8% | > 1.7 | 188 µM | 

Source: ChEMBL document CHEMBL3286215, “Preparation, anticholinesterase activity and molecular docking of new lupane derivatives” (Bioorg Med Chem, 2014)
